Measured values published in patent US20240408059A1, “METHOD OF TREATING ADDICTION” (Anebulo Pharmaceuticals, Inc., priority 2021, published 2024).
Blank lines part the entries; values can stand above or below the molecule they belong to.

What was measured:
CYP3A4 [1] = molecular target: T1, CYP3A4 (Homo sapiens, UniProt P08684); assay: Drug-drug interactions, CYP3A4 inhibition; format: in vitro ADME
Experimental: (§1) In steady state, the patient has 24 h coverage despite convenient once daily dosing. […] Both antidepressants and drug withdrawal can decrease the seizure threshold.

[2] = Half-life of Compound 2 (once daily dosing, steady state); format: in vivo; conditions: accumulation enables slow onset; 24 h coverage in steady state with once daily dosing
Experimental: as §1

[3] = Compound 2 in treatment of cannabis use disorder (CUD) / cannabis withdrawal; format: in vivo, human
Excerpt: Compound 2 is used in a combination treatment for cannabis use disorder (CUD). Combinations include use of antidepressants (specifically sedating antidepressants, such as mirtazapine or trazodone), antipsychotics, CB1 agonists such as THC and allosteric CB1 modulators such as Cannabidiol. These agents improve the safety profile of a CB1 inhibitor as described herein, such as compound 2, and lessen the burden of the withdrawal symptoms.
The benefits of a combination therapy comprising compound 2 and a sedating antidepressant, such as Mirtazapine or Trazodone, are outline in Table 1 below.
Daily doses such as between about 5 mg and about 100 mg of Compound 2 are efficacious in CUD. Doses of 1-50 mg or 20 to 30 mg may also be used. Compound 2 is also evaluated in combination with daily doses of Mirtazapine at about 15 mg to about 45 mg, or daily doses of Trazodone at about 50 mg to about 400 mg. Mirtazapine is given at bedtime. In another embodiment, Compound 2 and Mirtazapine are formulated and administered as a single oral dosage form, such as a tablet or a capsule.

Seizure liability = conditions: in vivo
Experimental: as §1

CYP3A4 [4] = molecular target: T1, CYP3A4; conditions: CYP3A4 inhibitors increase the concentrations of both drugs; cited from earlier work
[5] = patients taking the drug long term; vs 5%; cited from earlier work

T1 sequence (P08684 whole entry): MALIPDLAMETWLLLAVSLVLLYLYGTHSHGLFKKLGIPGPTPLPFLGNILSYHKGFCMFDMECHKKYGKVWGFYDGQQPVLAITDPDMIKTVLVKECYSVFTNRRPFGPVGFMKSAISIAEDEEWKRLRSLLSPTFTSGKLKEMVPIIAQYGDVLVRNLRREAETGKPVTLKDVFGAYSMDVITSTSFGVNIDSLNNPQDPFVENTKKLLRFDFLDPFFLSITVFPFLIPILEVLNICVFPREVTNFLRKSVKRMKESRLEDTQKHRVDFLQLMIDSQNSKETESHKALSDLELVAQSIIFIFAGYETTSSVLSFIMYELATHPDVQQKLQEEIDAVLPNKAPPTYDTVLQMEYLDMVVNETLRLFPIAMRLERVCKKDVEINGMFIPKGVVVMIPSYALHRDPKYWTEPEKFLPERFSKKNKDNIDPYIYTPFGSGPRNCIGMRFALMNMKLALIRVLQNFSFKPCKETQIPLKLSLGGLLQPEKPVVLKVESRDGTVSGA

- half-life [2]: Long half-life
- Effect of Compound 2 on anxiety (withdrawal symptoms) ([3]; cannabis withdrawal): Increases anxiety
- Effect of Compound 2 on mood ([3]; cannabis withdrawal): Depressed mood
- Effect of Compound 2 on sleep problems (withdrawal symptoms) ([3]; cannabis withdrawal): Increases sleep
- Effect of Compound 2 on weight ([3]; cannabis withdrawal): Weight loss
Compound: CC(C)(C)NC(=O)N1CC(O[C@H](c2ccc(Cl)cc2)c2ccccc2C(F)(F)F)C1 [Compound 2, (R)—N-(tert-butyl)-3-((4-chlorophenyl)(2-(trifluoromethyl)phenyl)methoxy)azetidine-1-carboxamide]
- drug-drug interactions, particularly CYP3A4 inhibition (CYP3A4 [1]): Lack of drug-drug interactions, particularly CYP3A4 inhibition
- Effect of Compound 2 on high probability of THC use/relapse: anti-addictive properties ([3]; cannabis withdrawal): has anti-addictive
- Effect of Compound 2 on high probability of THC use/relapse: getting high ([3]; cannabis withdrawal): Blocks getting high +
- efficacy in CUD ([3]; daily doses between about 5 mg and about 100 mg): efficacious
- seizure liability (Seizure liability): Lack of seizure liability

Compound: CN1CCN2c3ncccc3Cc3ccccc3C2C1 (stereo not shown) [Mirtazapine]
- metabolizing enzyme (CYP3A4 [4]): metabolized by CYP3A4

Compound: Cc1c(C(=O)NN2CCCCC2)nn(-c2ccc(Cl)cc2Cl)c1-c1ccc(Cl)cc1 [Rimonabant]
- incidence of depression [5]: 9%

Compound: O=c1n(CCCN2CCN(c3cccc(Cl)c3)CC2)nc2ccccn12 [Trazodone]
- metabolizing enzyme (CYP3A4 [4]): metabolized by CYP3A4
